{"source": "paper PMC10460844", "about": "“Real‐Time Monitoring of Multitarget Antimicrobial Mechanisms of Peptoids Using Label‐Free Imaging with Optical Diffraction Tomography” (Advanced Science, 2023)", "format_in_all_cases": "cell-based", "key": {"[1]": {"test_system": "HaCaT human keratinocytes", "test": "MTS cytotoxicity assay", "conditions": "24 h exposure in DMEM, concentration killing 50% of cells", "procedure": "4. Cell culture and cytotoxicity test using MTS assay\n(Seoul, South Korea), human keratinocytes (HaCaT) were provided by the Skin Research Institute R&D Center of Amore Pacific Company (Yongin, South Korea). All cells were grown in Dulbecco's modified Eagle’s medium (DMEM) supplemented with 10% fetal bovine serum at 37 °C in an atmosphere containing 5% CO2. The 3-(4,5-dimethylthiazol-2- […]\nassays were used to determine the effects of peptoids on cell growth.[4] Aliquots (100 µL) of media containing 1.3×10^4 MRC-5 cells/mL or 3×10^4 HaCaT cells/mL were distributed into each well of a 96-well plate (Eppendorf, Hamburg, Germany). The cells were allowed to attach and were grown in a humidified atmosphere containing 5% CO2 at 37 °C for 24 h.\nWhen the cell density reached approximately 70% confluency, the medium was replaced with serial dilutions of the peptoid stock in DMEM and incubated for an additional 24 h. […] The MTS-formazan products in viable cells were measured at 490 nm using a microplate reader, and the percentage of cell viability (%) was calculated by comparing readings to the values of untreated wells. Percentage values of cell viability were calculated as A/(A control)×100, where A is the absorbance of the test well and A control is the average absorbance of wells containing untreated cells. […]"}, "E. coli ATCC 25922 [2]": {"test_system": "E. coli ATCC 25922", "test": "Bacterial respiration assay (oxygen consumption rate)", "conditions": "at MIC concentration, Seahorse XFe96, M9 + 10 mM glucose", "procedure": "11. Bacterial respiration assay\nFigure S12. Real-time changes in oxygen consumption rate (OCR, in picomoles of molecular oxygen per minute) in response to treatment with peptoid 29, ampicillin (Amp), and chloramphenicol (Cam) in E. coli measured on a Seahorse XFe 96 extracellular flux analyzer.\nOCR changes in cells treated with 29 over time (2.5 min intervals). b) Comparison of OCR responses induced by 29, Amp, and Cam treatment detected at 2.5 min intervals. The vertical line with azure color indicates the injection point of each antibiotic into the cultures. All data represent the mean ± SEM of 5-8 replicates.\nBacterial respiration assays\nCellular oxygen consumption rate (OCR) of E. coli ATCC 25922 was measured using a Seahorse XFe96 Extracellular Flux Analyzer (Agilent) as published previously.[9] Briefly, after overnight culture in LB, bacterial cells were diluted 1:200 into fresh M9 media (M6030, Sigma) and incubated for an additional 3 h at 37 °C. To conduct the measurements, bacteria were diluted to OD600 of 0.02 in M9 supplemented with 10 mM glucose. 90 μL of this cell suspension was loaded into a 96-well microplate precoated with poly-D-lysine (100 μg/mL, Sigma). […] OCR values were quantified every 2.5 min (mix and measure for 30 sec and 2 min, respectively) for an additional 48 cycles, and normalized to bacterial density […]"}, "E. coli ATCC 25922 [3]": {"test_system": "E. coli ATCC 25922", "conditions": "ODT, 30 min treatment; buforin-II 25 µM, melittin 25 µM, 29 4 × MIC", "procedure": "Three‐dimensional (3D) optical diffraction tomography (ODT) and fluorescence images of live bacterial cells were obtained using an HT‐2H Mach−Zehnder interferometric microscope, combining both ODT and fluorescence imaging into a single unit (Tomocube, Daejon, South Korea). 3D Fluorescence imaging was carried out, using three light sources (385, 470, and 565 nm) via serial fluorescence image acquisition in multiple planes followed by 3D deconvolution. 3D correlative imaging, using a combination of ODT and fluorescence imaging was performed using commercial software (TomoStudioTM, Tomocube) as described previously^[ [23c] ^] Bacterial cells were grown overnight and diluted (≈10^7 CFU mL^−1) in cation‐adjusted MHB2 media. The cells were loaded onto 50 mm imaging dishes with a #1.5H glass coverslip bottom (TomoDish, Tomocube) that were precoated with 0.01% (w/v) poly‐L‐lysine (Sigma‐Aldrich) in water. After 30 min incubation at room temperature, the coverslips were washed twice with PBS (pH 7.4) to remove unattached cells, and the media was replaced with PBS for the duration of the imaging. To monitor the change in bacterial morphology, bacterial cells were treated with a peptoid (or with control AMPs) in PBS containing FM4‐64 (10 µg mL^−1) or propidium iodide (10 µg mL^−1). To analyze 3D refractive index (RI) tomograms, individual bacteria were captured using ODT equipped with a digital micromirror device (Tomocube). In more detail, the light scattered by the bacterial cells was collected by an objective lens (NA = 1.2, water dipping, UPLSAPO 60XW, Olympus) and recorded by a digital image sensor (CMOS camera, FL3‐U313Y3M‐C, FLIR Systems). Using a field retrieval algorithm, the amplitude and phase images were retrieved from the obtained multiple holograms, and then the 3D RI distribution was determined.\nThe analysis tool in the TomoStudio software (Tomocube) was used to measure specific values, including the refractive index (RI) and the cell volume of bacteria. These values were determined from RI increments (RII) of 0.190 fL pg^−1, which is known as a representative value and was assumed to be the same for most proteins.^[ [46] ^]"}}, "note": "Square brackets hold non-standard residues; d marks the D form. Peptide text beside a SMILES is read from it. Gly(N(CH2)2(3-indolyl)) = O=C(O)CNCCc1c[nH]c2ccccc12; Nspe = C[C@H](NCC(=O)O)c1ccccc1; Nlys = NCCCCNCC(=O)O", "data": [{"smiles": "C[C@@H](c1ccccc1)N(CC(N)=O)C(=O)CN(C(=O)CN(CCCCN)C(=O)CN(C(=O)CN(C(=O)CN(CCCCN)C(=O)CN(C(=O)CN(C(=O)CN(CCCCN)C(=O)CN(C(=O)CN(C(=O)CNCCCCN)[C@@H](C)c1ccccc1)[C@@H](C)c1ccccc1)[C@@H](C)c1ccccc1)[C@@H](C)c1ccccc1)[C@@H](C)c1ccccc1)[C@@H](C)c1ccccc1)[C@@H](C)c1ccccc1", "note": "[peptoid 1, reference compound] (H-[Nlys][Nspe][Nspe][Nlys][Nspe][Nspe][Nlys][Nspe][Nspe][Nlys][Nspe][Nspe]-NH2)", "values": [{"measurement": "LC50 HaCaT", "setting": "[1]", "value": 7.3, "unit": "µM"}]}, {"smiles": "C[C@@H](c1ccccc1)N(CC(=O)N(CCCCN)CC(=O)N(CCc1c[nH]c2ccccc12)CC(=O)N(CCc1c[nH]c2ccccc12)CC(N)=O)C(=O)CN(CCCCN)C(=O)CN(CCCCN)C(=O)CN(C(=O)CN(C(=O)CN(CCCCN)C(=O)CN(C(=O)CN(C(=O)CNCCCCN)[C@@H](C)c1ccccc1)[C@@H](C)c1ccccc1)[C@@H](C)c1ccccc1)[C@@H](C)c1ccccc1", "note": "[peptoid 29] (H-[Nlys][Nspe][Nspe][Nlys][Nspe][Nspe][Nlys][Nlys][Nspe][Nlys][Gly(N(CH2)2(3-indolyl))][Gly(N(CH2)2(3-indolyl))]-NH2)", "values": [{"measurement": "time after which OCR converged to zero", "setting": "E. coli ATCC 25922 [2]", "value": 30, "unit": "min"}, {"measurement": "change of cell volume", "setting": "E. coli ATCC 25922 [3]", "value": "notable reduction in cell volume"}, {"measurement": "change of mean RI value versus control cells", "setting": "E. coli ATCC 25922 [3]", "value": "significantly increased mean RI values"}]}]}
